Activity calls are given as the source filed them. No cut-off for these calls is given here.
Legend:
SK-OV-3 [1] = test: Antiproliferative activity against human SK-OV-3 cells overexpressing MDR-1-M6/6 assessed as inhibition of cell growth by SRB assay; assay type: functional, cell-based
SK-OV-3 [2] = test: Antiproliferative activity against wild type human SK-OV-3 cells assessed as inhibition of cell growth by SRB assay; assay type: functional, cell-based
HeLa [3] = test: Antiproliferative activity against human HeLa cells overexpressing betaIII-tubulin assessed as inhibition of cell growth by SRB assay; assay type: functional, cell-based
HeLa [4] = test: Antiproliferative activity against wild type human HeLa cells assessed as inhibition of cell growth by SRB assay; assay type: functional, cell-based
Tubulin (Bos taurus) = Tubulin (Bos taurus) (UniProt Q6B856+Q862L2+Q862F3); test: Displacement of [3H]colchicine from bovine brain tubulin at 5 uM incubated for 10 mins; assay type: tissue-based
[5] = Selectivity ratio of EC50 for induction of microtubule depolymerization in rat A10 cells to IC50 for antiproliferative activity against human MDA-MB-435 cells
[6] = Induction of microtubule depolymerization in rat A10 cells incubated for 18 hrs by indirect immunofluorescence analysis; assay type: cell-based
MDA-MB-435 [7] = test: Antiproliferative activity against human MDA-MB-435 cells assessed as inhibition of cell growth by SRB assay; assay type: functional, cell-based
Tubulin = Tubulin (Bos taurus, UniProt Q6B856+Q862L2+Q862F3); test: Inhibition of bovine brain tubulin assembly; assay type: tissue-based
MDA-MB-435 [8] = test: Antitumor activity against human MDA-MB-435 cells xenografted in nude mouse at 50 mg/kg, ip administered 3 times a week for 2 weeks and measured on day 14; assay type: functional, organism-based; details: time 14.0 day
MDA-MB-435 [9] = test: Antitumor activity against human MDA-MB-435 cells xenografted in nude mouse assessed as reduction in tumor volume at 50 mg/kg, ip administered 3 times a week for 2 weeks and measured on day 14; assay type: functional, organism-based; details: time 14.0 day
MDA-MB-435 [10] = test: Antitumor activity against human MDA-MB-435 cells xenografted in nude mouse at 15 mg/kg, ip administered 3 times a week for 2 weeks and measured on day 14; assay type: functional, organism-based; details: time 14.0 day
MDA-MB-435 [11] = test: Antitumor activity against human MDA-MB-435 cells xenografted in nude mouse assessed as reduction in tumor volume at 15 mg/kg, ip administered 3 times a week for 2 weeks and measured on day 14; assay type: functional, organism-based; details: time 14.0 day

CNc1nc(C)nc(N(C)c2ccc(OC)cc2)c1Cl
IC50 (SK-OV-3 [1]): 169 nM
IC50 (SK-OV-3 [2]): 118 nM
IC50 (HeLa [3]): 107 nM
IC50 (HeLa [4]): 87.6 nM
inhibition (Tubulin (Bos taurus)): 68%
Selectivity ratio [5]: 20
EC50 [6]: 2100 nM
IC50 (MDA-MB-435 [7]): 103 nM

COc1ccc2c(c1)CCCN2c1nc(C)nc(NC(=O)C(C)(C)C)c1Cl
IC50 (SK-OV-3 [2]): 3300 nM
IC50 (HeLa [3]): 2600 nM
IC50 (HeLa [4]): 2600 nM
EC50 [6]: > 10000 nM
IC50 (MDA-MB-435 [7]): 2100 nM

COc1ccc(N(C)c2nc(C)nc(NCC(C)C)c2Cl)cc1
IC50 (SK-OV-3 [1]): 117 nM
IC50 (SK-OV-3 [2]): 107 nM
IC50 (HeLa [3]): 104 nM
IC50 (HeLa [4]): 96.7 nM
inhibition (Tubulin (Bos taurus)): 57%
Selectivity ratio [5]: 5
EC50 [6]: 394 nM
IC50 (MDA-MB-435 [7]): 78.1 nM

COc1ccc(N(C)c2nc(C)nc(NC(C)C)c2Cl)cc1
IC50 (SK-OV-3 [1]): 1600 nM
IC50 (SK-OV-3 [2]): 1400 nM
IC50 (HeLa [3]): 1000 nM
IC50 (HeLa [4]): 800 nM
Selectivity ratio [5]: 11
EC50 [6]: 7400 nM
IC50 (MDA-MB-435 [7]): 685 nM

COc1cccc(N(C)c2nc(C)nc(N)c2Cl)c1
EC50 [6]: > 10000 nM

COc1ccc(N(C)c2nc(C)nc(N)c2C)cc1
IC50 (SK-OV-3 [1]): > 500 nM
IC50 (SK-OV-3 [2]): 312 nM
IC50 (HeLa [3]): 250 nM
IC50 (HeLa [4]): 229 nM
inhibition (Tubulin (Bos taurus)): 45%
Selectivity ratio [5]: >39
EC50 [6]: > 8000 nM
IC50 (MDA-MB-435 [7]): 206 nM

COc1ccc(N(C)c2nc(C)nc3[nH]ccc23)cc1
inhibition (Tubulin (Bos taurus)): 70%
IC50 (Tubulin): 2600 nM
Selectivity ratio [5]: 32
EC50 [6]: 5800 nM

CCNc1nc(C)nc(N(C)c2ccc(OC)cc2)c1Cl
IC50 (SK-OV-3 [1]): 93.5 nM
IC50 (SK-OV-3 [2]): 77.9 nM
IC50 (HeLa [3]): 61.7 nM
IC50 (HeLa [4]): 41.8 nM
inhibition (Tubulin (Bos taurus)): 74%
Selectivity ratio [5]: 6
EC50 [6]: 305 nM
IC50 (MDA-MB-435 [7]): 50.4 nM

Cc1nc(N)c(Cl)c(N(C)c2ccc3c(c2)CCO3)n1
IC50 (SK-OV-3 [1]): 1050 nM
IC50 (SK-OV-3 [2]): 742 nM
IC50 (HeLa [3]): 415 nM
IC50 (HeLa [4]): 490 nM
inhibition (Tubulin (Bos taurus)): 60%
Selectivity ratio [5]: 15
EC50 [6]: 9200 nM
IC50 (MDA-MB-435 [7]): 620 nM

CCCNc1nc(C)nc(N(C)c2ccc(OC)cc2)c1Cl
Activity (MDA-MB-435 [8]): inactive
Activity (MDA-MB-435 [9]): Active
IC50 (SK-OV-3 [1]): 39.2 nM
IC50 (SK-OV-3 [2]): 34.2 nM
IC50 (HeLa [3]): 33.8 nM
IC50 (HeLa [4]): 27.9 nM
inhibition (Tubulin (Bos taurus)): 82%
Selectivity ratio [5]: 5
EC50 [6]: 123 nM
IC50 (MDA-MB-435 [7]): 24.4 nM

COc1ccc(/C=C\c2cc(OC)c(OC)c(OC)c2)cc1O [COMBRETASTATIN A4]
EC50 [6]: 9.8 nM

COc1ccc2c(c1)CCCN2c1nc(C)nc(N)c1Cl
IC50 (SK-OV-3 [1]): 576 nM
IC50 (SK-OV-3 [2]): 459 nM
IC50 (HeLa [3]): 279 nM
IC50 (HeLa [4]): 312 nM
inhibition (Tubulin (Bos taurus)): 61%
Selectivity ratio [5]: 6.5
EC50 [6]: 1400 nM
IC50 (MDA-MB-435 [7]): 220 nM

COc1ccc(Nc2nc(C)nc(N)c2Cl)cc1
EC50 [6]: > 10000 nM

COc1ccc(N(C)c2nc(C)nc(N)c2Cl)cc1
IC50 (SK-OV-3 [1]): 180 nM
IC50 (SK-OV-3 [2]): 133 nM
IC50 (HeLa [3]): 112 nM
IC50 (HeLa [4]): 86.3 nM
inhibition (Tubulin (Bos taurus)): 76%
Selectivity ratio [5]: 21
EC50 [6]: 1500 nM
IC50 (MDA-MB-435 [7]): 71.3 nM

CCCCNc1nc(C)nc(N(C)c2ccc(OC)cc2)c1Cl
IC50 (SK-OV-3 [1]): 165 nM
IC50 (SK-OV-3 [2]): 122 nM
IC50 (HeLa [3]): 105 nM
IC50 (HeLa [4]): 66.2 nM
inhibition (Tubulin (Bos taurus)): 84%
Selectivity ratio [5]: 5
EC50 [6]: 432 nM
IC50 (MDA-MB-435 [7]): 84.4 nM

CSc1ccc(N(C)c2nc(C)nc(N)c2Cl)cc1
IC50 (SK-OV-3 [2]): 277 nM
IC50 (HeLa [3]): 163 nM
IC50 (HeLa [4]): 158 nM
inhibition (Tubulin (Bos taurus)): 71%
EC50 [6]: 3300 nM
IC50 (MDA-MB-435 [7]): 140 nM

COc1ccc(N(C)c2nc(C)nc(NCc3ccccc3)c2Cl)cc1
inhibition (Tubulin (Bos taurus)): 14%
EC50 [6]: > 10000 nM

COc1ccc(N(C)c2nc(C)nc(NC(C)=O)c2Cl)cc1
EC50 [6]: > 15000 nM
IC50 (MDA-MB-435 [7]): 3700 nM

COc1cccc2cc(N(C)c3nc(C)nc(N)c3Cl)ccc12
IC50 (SK-OV-3 [1]): 193 nM
IC50 (SK-OV-3 [2]): 64.7 nM
IC50 (HeLa [3]): 70.2 nM
IC50 (HeLa [4]): 67.1 nM
inhibition (Tubulin (Bos taurus)): 74%
Selectivity ratio [5]: 15
EC50 [6]: 831 nM
IC50 (MDA-MB-435 [7]): 56.1 nM

CC(=O)O[C@H]1C(=O)[C@@]2(C)[C@H]([C@H](OC(=O)c3ccccc3)[C@]3(O)C[C@H](OC(=O)[C@H](O)[C@@H](NC(=O)c4ccccc4)c4ccccc4)C(C)=C1C3(C)C)[C@]1(OC(C)=O)CO[C@@H]1C[C@@H]2O [PACLITAXEL]
Activity (MDA-MB-435 [10]): inactive
Activity (MDA-MB-435 [11]): Active
IC50 (SK-OV-3 [2]): 5 nM

CCCNc1nc(C)nc(N(C)c2ccc3c(OC)cccc3c2)c1Cl
IC50 (SK-OV-3 [1]): 362 nM
IC50 (SK-OV-3 [2]): 227 nM
IC50 (HeLa [3]): 234 nM
IC50 (HeLa [4]): 368 nM
inhibition (Tubulin (Bos taurus)): 61%
Selectivity ratio [5]: 1.2
EC50 [6]: 260 nM
IC50 (MDA-MB-435 [7]): 221 nM
